Assay results taken from US20260274799A1, “HETEROCYCLIC DERIVATIVES, COMPOSITIONS AND USES THEREOF” (DANATLAS PHARMACEUTICALS CO., LTD., priority 2023, published 2026).
Like-named read-outs stand apart in the source and are kept apart here.

Target: T1, PPARγ-LBD (UniProt ID: P37231-2) (Homo sapiens, UniProt P37231)
T1 construct: PPARγ-LBD (UniProt ID: P37231-2) was expressed and purified in insect system; made in house
T1 sequence (P37231 238-503 limits assumed): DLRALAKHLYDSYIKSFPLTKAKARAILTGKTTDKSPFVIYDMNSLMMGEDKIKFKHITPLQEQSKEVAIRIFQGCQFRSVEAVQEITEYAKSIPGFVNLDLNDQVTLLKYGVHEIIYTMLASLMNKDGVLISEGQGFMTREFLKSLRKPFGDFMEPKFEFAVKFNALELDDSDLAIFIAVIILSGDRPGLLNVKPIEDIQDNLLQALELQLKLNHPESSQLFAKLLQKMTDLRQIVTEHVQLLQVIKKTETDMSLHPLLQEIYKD
Assay: PPARγ-SMRT recruitment assay (TR-FRET)
Type: biochemical
Conditions: for Emax: 1 h, read-out: Top %; for EC50: TR-FRET, SMRT peptide recruitment to PPARγ-LBD, 120 min pre-incubation
Procedure: PPARγ TR-FRET assay was initiated to evaluate potential activatory effect of the compounds of the present disclosure for SMRT recruitment to PPARγ protein. PPARγ-LBD (UniProt ID: P37231-2) was expressed and purified in insect system and stored at −80° C. in aliquots. Biotinylated SMRT peptide was synthesized (Biotin-[…]). 5 μL protein solution mixture consisting of 10 nM PPARγ-LBD and 2 nM Anti-His Eu (Cisbio, 61HISKLA) in assay buffer (25 mM HEPES pH7.4, 25 mM KCl, 1 mM EDTA, 0.01% BSA, 0.01% Tween-20, 1 mM TCEP) was added to 384-well plates containing duplicate 10-point dose response titration of compounds in 5 μL assay buffer (1% f.c. DMSO(v/v)). After 120 min pre-incubation at room temperature, 5 μL peptide solution mixture consisting of 50 nM Biotin-SMRT peptide and 25 nM Streptavidin-XL665 (Cisbio, 610SAXLA) added to plates. Plates were incubated for 60 min. and read in CLARIOstar Plus plate reader with Ex/Em 620 nm/[…]. Average TR-FRET ratio of high control (Wells with 10 uM control compound) was calculated as High Control (HC). Average TR-FRET ratio of low control (Wells with 1% DMSO) was calculated as Low control (LC). For one compound, top % is the max value of % Activation.
EC50 values were determined by fitting the data to the standard 4 parameters with Hill Slope using GraphPad Prism software. […] ND: No Determine.

[1] = max value of % Activation, high control 10 uM control compound, low control 1% DMSO

Cc1cccc(C#Cc2c(F)cc3[nH]c(-c4cc(C#N)ccc4S(C)(=O)=O)cc(=O)c3c2F)n1 [Example 31, 3-(5,7-Difluoro-6-((6-methylpyridin-2-yl)ethynyl)-4-oxo-1,4-dihydroquinolin-2-yl)-4-(methylsulfonyl)benzonitrile]
Emax [1]: 181% | EC50: < 100 nM

Cc1cncc(C)c1C#Cc1c(F)cc2[nH]c(-c3cc(C#N)ccc3S(C)(=O)=O)cc(=O)c2c1F [Example 32, 3-(6-((3,5-Dimethylpyridin-4-yl)ethynyl)-5,7-difluoro-4-oxo-1,4-dihydroquinolin-2-yl)-4-(methylsulfonyl)benzonitrile]
Emax [1]: 343% | EC50: < 100 nM

CS(=O)(=O)c1ccc(C#N)cc1-c1cc(=O)c2c(F)c(C#Cc3ccccc3Cl)c(F)cc2[nH]1 [Example 33, 3-(6-((2-Chlorophenyl)ethynyl)-5,7-difluoro-4-oxo-1,4-dihydroquinolin-2-yl)-4-(methylsulfonyl)benzonitrile]
Emax [1]: 502% | EC50: < 100 nM

CS(=O)(=O)c1ccc(C#N)cc1-c1cc(=O)c2c(F)c(C#CC3CCOC3)c(F)cc2[nH]1 (stereo not shown) [Example 34, 3-(5,7-Difluoro-4-oxo-6-((tetrahydrofuran-3-yl)ethynyl)-1,4-dihydroquinolin-2-yl)-4-(methylsulfonyl)benzonitrile]
Emax [1]: 290% | EC50: < 100 nM

Cc1noc(C)c1C#Cc1c(F)cc2[nH]c(-c3cc(C#N)ccc3S(C)(=O)=O)cc(=O)c2c1F [Example 35, 3-(6-((3,5-Dimethylisoxazol-4-yl)ethynyl)-5,7-difluoro-4-oxo-1,4-dihydroquinolin-2-yl)-4-(methylsulfonyl)benzonitrile]
Emax [1]: 243% | EC50: < 100 nM

CS(=O)(=O)c1ccc(C#N)cc1-c1cc(=O)c2c(F)c(C#Cc3ccccc3OC(F)(F)F)c(F)cc2[nH]1 [Example 36, 3-(5,7-Difluoro-4-oxo-6-((2-(trifluoromethoxy)phenyl)ethynyl)-1,4-dihydroquinolin-2-yl)-4-(methylsulfonyl)benzonitrile]
Emax [1]: 322% | EC50: < 100 nM

CS(=O)(=O)c1ccc(C#N)cc1-c1cc(=O)c2c(F)c(C#Cc3ccccc3OC(F)F)c(F)cc2[nH]1 [Example 37, 3-(6-((2-(Difluoromethoxy)phenyl)ethynyl)-5,7-difluoro-4-oxo-1,4-dihydroquinolin-2-yl)-4-(methylsulfonyl)benzonitrile]
Emax [1]: 406% | EC50: < 100 nM

COc1cccnc1C#Cc1c(F)cc2[nH]c(-c3cc(C#N)ccc3S(C)(=O)=O)cc(=O)c2c1F [Example 38, 3-(5,7-Difluoro-6-((3-methoxypyridin-2-yl)ethynyl)-4-oxo-1,4-dihydroquinolin-2-yl)-4-(methylsulfonyl)benzonitrile]
EC50: < 100 nM

Cc1ccc(C#Cc2c(F)cc3[nH]c(-c4cc(C#N)ccc4S(C)(=O)=O)cc(=O)c3c2F)cc1 [Example 39, 3-(5,7-Difluoro-4-oxo-6-(p-tolylethynyl)-1,4-dihydroquinolin-2-yl)-4-(methylsulfonyl)benzonitrile]
Emax [1]: 406% | EC50: < 100 nM

CS(=O)(=O)c1ccc(C#N)cc1-c1cc(=O)c2c(F)c(C#Cc3cnc4cccnn34)c(F)cc2[nH]1 [Example 40, 3-(5,7-Difluoro-6-(imidazo[1,2-h]pyridazin-3-ylethynyl)-4-oxo-1,4-dihydroquinolin-2-yl)-4-(methylsulfonyl)benzonitrile]
Emax [1]: 237% | EC50: < 100 nM

CS(=O)(=O)c1ccc(C#N)cc1-c1cc(=O)c2c(F)c(C#Cc3ccccc3C#N)c(F)cc2[nH]1 [Example 42, 3-(6-((2-Cyanophenyl)ethynyl)-5,7-difluoro-4-oxo-1,4-dihydroquinolin-2-yl)-4-(methylsulfonyl)benzonitrile]
Emax [1]: 231% | EC50: < 100 nM

COc1nccnc1C#Cc1c(F)cc2[nH]c(-c3cc(C#N)ccc3S(C)(=O)=O)cc(=O)c2c1F [Example 43, 3-(5,7-Difluoro-6-((3-methoxypyrazin-2-yl)ethynyl)-4-oxo-1,4-dihydroquinolin-2-yl)-4-(methylsulfonyl)benzonitrile]
Emax [1]: 237% | EC50: < 100 nM

CS(=O)(=O)c1ccc(C#N)cc1-c1cc(=O)c2c(F)c(C#Cc3ccccc3C(F)(F)F)c(F)cc2[nH]1 [Example 44, 3-(5,7-Difluoro-4-oxo-6-((2-(trifluoromethyl)phenyl)ethynyl)-1,4-dihydroquinolin-2-yl)-4-(methylsulfonyl)benzonitrile]
Emax [1]: 286% | EC50: < 100 nM

CC1(C#Cc2c(F)cc3[nH]c(-c4cc(C#N)ccc4S(C)(=O)=O)cc(=O)c3c2F)COC1 [Example 45, 3-(5,7-Difluoro-6-((3-methyloxetan-3-yl)ethynyl)-4-oxo-1,4-dihydroquinolin-2-yl)-4-(methylsulfonyl)benzonitrile]
Emax [1]: 249% | EC50: < 100 nM

CCS(=O)(=O)c1ccc(C#N)cc1-c1cc(=O)c2c(F)c(C#CC3COC3)c(F)cc2[nH]1 [Example 46, 3-(5,7-Difluoro-6-(oxetan-3-ylethynyl)-4-oxo-1,4-dihydroquinolin-2-yl)-4-(ethylsulfonyl)benzonitrile]
Emax [1]: 174% | EC50: < 100 nM

CS(=O)(=O)c1ccc(C#N)cc1-c1cc(=O)c2c(F)c(C#Cc3ccncc3OC(F)F)c(F)cc2[nH]1 [Example 47, 3-(6-((3-(Difluoromethoxy)pyridin-4-yl)ethynyl)-5,7-difluoro-4-oxo-1,4-dihydroquinolin-2-yl)-4-(methylsulfonyl)benzonitrile]
Emax: 376% | EC50: < 100 nM

CC(C)(C#Cc1c(F)cc2[nH]c(-c3cc(C#N)ccc3S(C)(=O)=O)cc(=O)c2c1F)S(C)(=O)=O [Example 48, 3-(5,7-Difluoro-6-(3-methyl-3-(methylsulfonyl)but-1-yn-1-yl)-4-oxo-1,4-dihydroquinolin-2-yl)-4-(methylsulfonyl)benzonitrile]
EC50: < 100 nM

COCCC#Cc1c(F)cc2[nH]c(-c3cc(C#N)ccc3S(C)(=O)=O)cc(=O)c2c1F [Example 49, 3-(5,7-Difluoro-6-(4-methoxybut-1-yn-1-yl)-4-oxo-1,4-dihydroquinolin-2-yl)-4-(methylsulfonyl)benzonitrile]
EC50: < 100 nM

COC(C)(C)C#Cc1c(F)cc2[nH]c(-c3cc(C#N)ccc3S(C)(=O)=O)cc(=O)c2c1F [Example 50, 3-(5,7-Difluoro-6-(3-methoxy-3-methylbut-1-yn-1-yl)-4-oxo-1,4-dihydroquinolin-2-yl)-4-(methylsulfonyl)benzonitrile]
Emax [1]: 372% | EC50: < 100 nM

CS(=O)(=O)c1ccc(C#N)cc1-c1cc(=O)c2c(F)c(C#Cc3ccccc3F)c(F)cc2[nH]1 [Example 51, 3-(5,7-Difluoro-6-((2-fluorophenyl)ethynyl)-4-oxo-1,4-dihydroquinolin-2-yl)-4-(methylsulfonyl)benzonitrile]
Emax [1]: 447% | EC50: < 100 nM

CS(=O)(=O)c1ccc(C#N)cc1-c1cc(=O)c2c(F)c(C#CC3CCOCC3)c(F)cc2[nH]1 [Example 52, 3-(5,7-Difluoro-4-oxo-6-((tetrahydro-2H-pyran-4-yl)ethynyl)-1,4-dihydroquinolin-2-yl)-4-(methylsulfonyl)benzonitrile]
EC50: < 100 nM

CS(=O)(=O)c1ccc(C#N)cc1-c1cc(=O)c2c(F)c(/C=C/c3ccccc3)c(F)cc2[nH]1 [Example 53, (E)-3-(5,7-Difluoro-4-oxo-6-styryl-1,4-dihydroquinolin-2-yl)-4-(methylsulfonyl)benzonitrile]
Emax [1]: 650% | EC50: < 100 nM

Cn1nnnc1Sc1ccc(C#N)cc1-c1cc(=O)c2c(F)cc(F)cc2[nH]1 [Example 54, 3-(5,7-Difluoro-4-oxo-1,4-dihydroquinolin-2-yl)-4-((1-methyl-1H-tetrazol-5-yl)thio)benzonitrile]
EC50: > 1000 nM

COc1cc(-c2cc(C#N)ccc2S(C)(=O)=O)nc2cc(F)c(C#CC(C)(C)F)c(F)c12 [Example 55, 3-(5,7-Difluoro-6-(3-fluoro-3-methylbut-1-yn-1-yl)-4-methoxyquinolin-2-yl)-4-(methylsulfonyl)benzonitrile]
EC50: > 1000 nM

Cc1ccc(S(C)(=O)=O)c(-c2cc(=O)c3c(F)c(CCC4CCOCC4)c(F)cc3[nH]2)c1 [Example 56, 5,7-Difluoro-2-(5-methyl-2-(methylsulfonyl)phenyl)-6-(2-(tetrahydro-2H-pyran-4-yl)ethyl)quinolin-4(1H)-one]
EC50: 100 to 1000 nM
